Measurements published in paper PMC10535864, “Novel Aminopyrimidine-2,4-diones, 2-Thiopyrimidine-4-ones, and 6-Arylpteridines as Dual-Target Inhibitors of BRD4/PLK1: Design, Synthesis, Cytotoxicity, and Computational Studies” (Pharmaceuticals, 2023).
Like-named read-outs stand apart in the source and are kept apart here.

Assays:
[1] = tested on: MDA-MB-231 breast cancer cells; assay: MTT cytotoxicity assay, MDA-MB-231; format: cell-based; details: for IC50 / viability at 0.312 µM / viability at 0.625 µM / viability at 1.25 µM / viability at 2.5 µM / viability at 5 µM / viability at 10 µM: Homo sapiens; for IC50 / viability at 0.312 µM / viability at 0.625 µM / viability at 1.25 µM / viability at 2.5 µM / viability at 5 µM / viability at 10 µM / Toxicity %: MDA-MB-231
How it was run: (§1)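 Cells seeded at 1 X 10^5 cells/mL and grown 24 h at 37°C to a monolayer, then exposed to two-fold compound dilutions in RPMI with 2% serum, six doses. MTT added for 4 h at 37°C, formazan dissolved in DMSO, OD read at 560 nm minus 620 nm background. IC50 from dose-response.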

[2] = tested on: HT-29 colorectal adenocarcinoma cells; assay: MTT cytotoxicity assay, HT-29; format: cell-based; details: for viability at 0.312 µM / viability at 0.625 µM / viability at 1.25 µM / viability at 2.5 µM / viability at 5 µM / viability at 10 µM / IC50: Homo sapiens, HT-29
How it was run: as §1

[3] = MTT cytotoxicity assay, U-937; format: cell-based; details: Homo sapiens, U-937, U937, MTT;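 note: Six-dose MTT colorimetric assay on cell monolayers, formazan absorbance read at 560 nm with 620 nm background removed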
Protocol: (§2) All newly synthetic compounds were tested for cytotoxicity using a six-dose MTT colorimetric assay on three cancer cell lines; namely, breast cancer cells (MDA-MB-231), colorectal adenocarcinoma cells (HT-29) and renal cancer cells (U-937).
(§3) Using a six-dose MTT colorimetric assay [44, 66], all new synthetic compounds were tested for cytotoxicity against three cancer cell lines: MDA-MB-231 breast cancer cells, HT-29 colorectal adenocarcinoma cells, and U-937 renal cancer cells. […] These cell lines were supplied by ATCC (American Type Culture Collection) via the Holding company for biological products and vaccines (VACSERA, Cairo, Egypt). The reference control used was Methotrexate.
(§4) Using a six-dose MTT colorimetric assay [44, 66], allnew synthetic compounds were tested for cytotoxicity against three cancer cell lines: MDA-MB-231 breast cancer cells,HT-29 colorectal adenocarcinoma cells, and U-937 renal
(§5) The cell lines were supplied by ATCC (American Type Culture Collection). The reference control used was Methotrexate. The cytotoxic activities of the examined compounds were quantified by inoculating a 96-well tissue culture plate with 1 X 10^5 cells / mL (100 uL/well) and incubating it at 37°C for 24 hours to develop a complete monolayer sheet. After forming a confluent sheet of cells, the growth medium was decanted from 96-well microtiter plates, and the cell monolayer was washed twice with wash media. Two-fold dilutions of tested samples were made in RPMI medium with 2% serum (maintenance medium), and 0.1 mL of each dilution was tested in different wells, with three wells serving as controls and receiving only maintenance medium. Following that, the plate was incubated at 37°C and examined. Cells were investigated for any physical signs of toxicity, such as partial or complete monolayer loss, rounding, shrinkage, or cell granulation. MTT solution was prepared (5mg/ml in PBS) (BIO BASIC CANADA INC), and 20 uL MTT solution was added to each well. After 5 minutes on a shaking table at150 rpm to thoroughly mix the MTT into the media, it was incubated (37C, 5% CO2) for 4 hours to allow the MTT to be metabolized. Formazan (MTT metabolic product) was resuspended in 200 uL DMSO and shaken at 150 rpm for 5 minutes to thoroughly mix the formazan into the solvent. The optical density was measured at 560 nm, and the background was subtracted at 620 nm. Finally, the IC50 of the test compound in comparison to the reference was calculated using the GraphPad Prism software.

U-937 renal cancer cells = assay: MTT cytotoxicity assay, U-937; format: cell-based; details: for IC50: Homo sapiens, U-937;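 for all read-outs here: Six-dose MTT colorimetric assay on cell monolayers, formazan absorbance read at 560 nm with 620 nm background removed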
Protocol: as §2, §3, §4, §5

[4] = MTT cytotoxicity assay, normal Vero cells; format: cell-based; details: African green monkey, normal Vero cells, MTT; for IC50: mean of three independent experiments ± SD, read-out: In Vitro Cytotoxicity against Normal Cells IC50 Value, Vero Cells; for viability at 0.312 µM / viability at 0.625 µM / viability at 1.25 µM / viability at 2.5 µM / viability at 5 µM / viability at 10 µM: Vero
Protocol: as §3
1.1.In-vitro cytotoxicity screening
as §4, §5

normal Vero cells = assay: MTT cytotoxicity assay, normal Vero cells; format: cell-based; details: Vero; for Toxicity %: MTT
Protocol: as §3
1.1.In-vitro cytotoxicity screening
as §4, §5

BRD4 (BD2) = molecular target: T1, BRD4 (BD2) (Homo sapiens, UniProt O60885); assay: BRD4 inhibitory activity assay (AlphaLISA Bromodomain Assay); format: binding; details: for %inh: BRD4 Lab Report; for IC50: mean of three independent experiments, read-out: BRD4 IC50 ± SD;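 for all read-outs here: in vitro inhibition of recombinant BRD4 BD2 bromodomain binding to a BET bromodomain ligand, read by AlphaLISA proximity signal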
T1 construct: BRD4 (BD2) should be thawed on ice; purchased
Protocol: The BRD4 and PLK1 inhibitory assays were carried out in vitro in accordance with the manufacturer’s instructions; BRD4 was assessed using AlphaLISA Bromodomain Assay Protocol [67], and PLK1 kinase was tested using the ADP-Glo™ Kinase Assay Protocol [68], as detailed in the Supplementary file.
The BRD4 and PLK1 inhibitory assays were carried out in vitro in accordance with the manufacturer's instructions; BRD4 was assessed using AlphaLISA Bromodomain Assay Protocol [67], and PLK1 kinase was tested using the ADP-Glo™ Kinase Assay Protocol [68],
The master mixture was prepared as follows: N wells × (2.5 µL 3x BRD Homogeneous Assay Buffer 1 + 1 µL BET Bromodomain Ligand + 1.5 µL H2O). BRD4 (BD2) should be thawed on ice. Simply, the protein-containing tube was spined to recover the full content of the tube after the firstthaw. Both proteins should be aliquoted into single-use aliquots. Immediately, any remaining undiluted protein should be stored in aliquots at -80°C. BRD4 (BD2) was diluted in 1x BRD Homogeneous Assay Buffer 1 at 4 ng/µL. The diluted proteins were kept on ice until they were used. 5 µl of the master mixture is added to each well designated for the “Positive Control”, “Test Inhibitor”, and “Blank”. For the “Substrate Control”, 2.5 µL 3x BRD Homogeneous Assay Buffer 1 + 1 µL Non-acetylated Ligand 1 + 1.5 µL H2O is added. Each “Test Inhibitor” well received 2.5 µL of inhibitor solution, while the “Positive
Control”, “Substrate Control”, and “Blank” wells received 2.5 µL of the same solution without inhibitor (inhibitor buffer). Then, the “Blank” well is filled with 2.5 µL of 1x BRD Homogeneous Assay Buffer 1. After that, GSH
10 µL per well is added, the plate isshaken, and itis incubated at room temperature for 30 minutes. Streptavidin-
10 µL is added per well and incubated at room temperature for further 15 – 30 minutes [67]. The Alpha counts were read using the EnVision® multimode plate reader with the standard Alpha detection settings.

human recombinant PLK1 = human recombinant PLK1 (Homo sapiens, UniProt P53350); assay: PLK1 inhibitory activity assay (ADP-Glo Kinase Assay); format: biochemical; details: for %inh: PLK1 Lab Report; for IC50: mean of three independent experiments, read-out: PLK1 IC50 ± SD
Protocol: The BRD4 and PLK1 inhibitory assays were carried out in vitro in accordance with the manufacturer’s instructions; BRD4 was assessed using AlphaLISA Bromodomain Assay Protocol, and PLK1 kinase was tested using the ADP-Glo™ Kinase Assay Protocol, as detailed in the Supplementary file. […]
1.2.2. PLK1 inhibitory activity assay
The kinase reaction was performed with active human recombinant PLK1 and combined with the substrate dephosphorylated casein (positive control) using 1 X reaction buffer (40 mM Tris-HCl pH 7.4, 20 mM MgCl2, 0.1 mg/mL BSA, 1 mM DTT) and 20 μM ATP. The reaction was incubated at30°C for 45 minutes. The amount of ATP transferred was calculated using […] reagent from Promega according to the manufacturer’s instruction.
A plate-reading luminometer isused to measure the luminescence. […]

[5] = MTT, mean of three independent experiments ± SD, read-out: IC50 Value MDA-MB-231
[6] = MTT, mean of three independent experiments ± SD, read-out: IC50 Value HT-29
[7] = MTT, mean of three independent experiments ± SD, read-out: IC50 Value U-937
[8] = SI = IC50 normal cells (Vero)/IC50 cancer cells

Sequence of human recombinant PLK1 (P53350 whole entry): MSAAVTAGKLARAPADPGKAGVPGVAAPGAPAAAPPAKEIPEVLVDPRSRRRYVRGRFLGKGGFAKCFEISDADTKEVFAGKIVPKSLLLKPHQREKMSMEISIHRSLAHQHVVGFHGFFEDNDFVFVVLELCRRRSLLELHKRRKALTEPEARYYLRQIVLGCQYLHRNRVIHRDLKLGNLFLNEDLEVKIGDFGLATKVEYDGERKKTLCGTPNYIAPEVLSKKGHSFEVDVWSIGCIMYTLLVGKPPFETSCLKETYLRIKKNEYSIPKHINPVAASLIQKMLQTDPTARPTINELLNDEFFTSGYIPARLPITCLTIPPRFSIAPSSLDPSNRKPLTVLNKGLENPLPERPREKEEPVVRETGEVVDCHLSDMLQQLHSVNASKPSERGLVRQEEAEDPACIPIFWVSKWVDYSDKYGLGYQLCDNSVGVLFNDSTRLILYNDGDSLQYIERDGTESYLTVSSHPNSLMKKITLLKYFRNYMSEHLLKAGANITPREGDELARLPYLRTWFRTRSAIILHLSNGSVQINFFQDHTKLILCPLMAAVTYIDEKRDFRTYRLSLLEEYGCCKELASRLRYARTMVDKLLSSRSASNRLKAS

SMILES: Nc1c(/N=C(/CBr)c2ccccc2)c(=O)[nH]c(=O)n1Cc1ccccc1 [Compound 4, (E)-6-Amino-1-benzyl-5-((2-bromo-1-phenylethylidene)amino)pyrimidine-2,4(1H,3H)-dione]
- IC50 [1, 5]: 780 ± 10 nM
- viability at 0.312 µM ([1]; MTT, 0.312 uM): 99.7%
- viability at 0.625 µM ([1]; MTT, 0.625 uM): 57.8%
- viability at 1.25 µM ([1]; MTT, 1.25 uM): 7.14%
- viability at 2.5 µM ([1]; MTT, 2.5 uM): 8.02%
- viability at 5 µM ([1]; MTT, 5 uM): 5.1%
- viability at 10 µM ([1]; MTT, 10 uM): 4.7%
- Toxicity % ([1]; MTT, 0.312 uM): 0.3103%
- Toxicity % ([1]; MTT, 0.625 uM): 42.24%
- Toxicity % ([1]; MTT, 1.25 uM): 92.86%
- Toxicity % ([1]; MTT, 2.5 uM): 91.98%
- Toxicity % ([1]; MTT, 5 uM): 94.9%
- Toxicity % ([1]; MTT, 10 uM): 95.3%
- Toxicity % ([2]; HT29, MTT, 0.312 uM): 0.1292%
- Toxicity % ([2]; HT29, MTT, 0.625 uM): 48.06%
- Toxicity % ([2]; HT29, MTT, 1.25 uM): 92.12%
- Toxicity % ([2]; HT29, MTT, 2.5 uM): 92.46%
- Toxicity % ([2]; HT29, MTT, 5 uM): 92.76%
- Toxicity % ([2]; HT29, MTT, 10 uM): 93.84%
- viability at 0.312 µM ([2]; HT29, MTT, 0.312 uM): 99.9%
- viability at 0.625 µM ([2]; HT29, MTT, 0.625 uM): 51.9%
- viability at 1.25 µM ([2]; HT29, MTT, 1.25 uM): 7.88%
- viability at 2.5 µM ([2]; HT29, MTT, 2.5 uM): 7.54%
- viability at 5 µM ([2]; HT29, MTT, 5 uM): 7.24%
- viability at 10 µM ([2]; HT29, MTT, 10 uM): 6.16%
- IC50 [2, 6]: 760 nM
- viability at 0.312 µM [3]: 97.3%
- viability at 0.625 µM [3]: 83%
- viability at 1.25 µM [3]: 24.8%
- viability at 2.5 µM [3]: 8.01%
- viability at 5 µM [3]: 7.46%
- viability at 10 µM [3]: 7.9%
- IC50 (U-937 renal cancer cells; [7]): 950 nM
- Toxicity % (U-937 renal cancer cells; U937, MTT, 0.312 uM): 2.669%
- Toxicity % (U-937 renal cancer cells; U937, MTT, 0.625 uM): 16.99%
- Toxicity % (U-937 renal cancer cells; U937, MTT, 1.25 uM): 75.22%
- Toxicity % (U-937 renal cancer cells; U937, MTT, 2.5 uM): 91.99%
- Toxicity % (U-937 renal cancer cells; U937, MTT, 5 uM): 92.54%
- Toxicity % (U-937 renal cancer cells; U937, MTT, 10 uM): 92.1%
- IC50 [4]: 1730 ± 30 nM
- viability at 0.312 µM [4]: 100%
- viability at 0.625 µM [4]: 92.9%
- viability at 1.25 µM [4]: 63.6%
- viability at 2.5 µM [4]: 23.6%
- viability at 5 µM [4]: 6.63%
- viability at 10 µM [4]: 2.28%
- Toxicity % (normal Vero cells; 0.312 uM): 0%
- Toxicity % (normal Vero cells; 0.625 uM): 7.106%
- Toxicity % (normal Vero cells; 1.25 uM): 36.41%
- Toxicity % (normal Vero cells; 2.5 uM): 76.37%
- Toxicity % (normal Vero cells; 5 uM): 93.37%
- Toxicity % (normal Vero cells; 10 uM): 97.72%
- %inh (BRD4 (BD2); conc 0.01 (unit not given)): 41%
- %inh (BRD4 (BD2); conc 0.1 (unit not given)): 58%
- %inh (BRD4 (BD2); conc 1 (unit not given)): 75%
- %inh (BRD4 (BD2); conc 10 (unit not given)): 91%
- %inh (BRD4 (BD2); conc 100 (unit not given)): 95%
- IC50 (BRD4 (BD2)): 29 ± 1 nM
- %inh (human recombinant PLK1; conc 0.01 (unit not given)): 34%
- %inh (human recombinant PLK1; conc 0.1 (unit not given)): 46%
- %inh (human recombinant PLK1; conc 1 (unit not given)): 70%
- %inh (human recombinant PLK1; conc 10 (unit not given)): 88%
- %inh (human recombinant PLK1; conc 100 (unit not given)): 95%
- IC50 (human recombinant PLK1): 94 ± 4 nM

SMILES: CCn1c(N)c(/N=C(/CBr)c2ccc(OC)cc2)c(=O)[nH]c1=O [Compound 6a, (E)-6-Amino-5-((2-bromo-1-(4-methoxyphenyl)ethylidene)amino)-1-ethylpyrimidine-2,4(1H,3H)-dione]
- IC50 [1, 5]: 630 ± 10 nM
- viability at 0.312 µM ([1]; MTT, 0.312 uM): 100%
- viability at 0.625 µM ([1]; MTT, 0.625 uM): 98.9%
- viability at 1.25 µM ([1]; MTT, 1.25 uM): 27.1%
- viability at 2.5 µM ([1]; MTT, 2.5 uM): 5.98%
- viability at 5 µM ([1]; MTT, 5 uM): 3.37%
- viability at 10 µM ([1]; MTT, 10 uM): 4.03%
- IC50 ([1]; supplement viability lab report, read-out: IC50 ± SD): 1000 nM
- Toxicity % ([1]; MTT, 0.312 uM): 0.04433%
- Toxicity % ([1]; MTT, 0.625 uM): 1.064%
- Toxicity % ([1]; MTT, 1.25 uM): 72.92%
- Toxicity % ([1]; MTT, 2.5 uM): 94.02%
- Toxicity % ([1]; MTT, 5 uM): 96.63%
- Toxicity % ([1]; MTT, 10 uM): 95.97%
- Selectivity Indices (SI) MDA-MB-231 ([1]; SI = IC50 normal cells (Vero)/IC50 cancer cells, ≥5 highly, >2 moderately, <2 non-selective): 3.27
- Toxicity % ([2]; HT29, MTT, 0.312 uM): 0.3876%
- Toxicity % ([2]; HT29, MTT, 0.625 uM): 0.04307%
- Toxicity % ([2]; HT29, MTT, 1.25 uM): 26.57%
- Toxicity % ([2]; HT29, MTT, 2.5 uM): 89.88%
- Toxicity % ([2]; HT29, MTT, 5 uM): 95.95%
- Toxicity % ([2]; HT29, MTT, 10 uM): 95.74%
- viability at 0.312 µM ([2]; HT29, MTT, 0.312 uM): 99.6%
- viability at 0.625 µM ([2]; HT29, MTT, 0.625 uM): 100%
- viability at 1.25 µM ([2]; HT29, MTT, 1.25 uM): 73.4%
- viability at 2.5 µM ([2]; HT29, MTT, 2.5 uM): 10.1%
- viability at 5 µM ([2]; HT29, MTT, 5 uM): 4.05%
- viability at 10 µM ([2]; HT29, MTT, 10 uM): 4.26%
- IC50 [2, 6]: 750 ± 10 nM
- IC50 ([2]; supplement viability lab report, HT29, read-out: IC50 ± SD): 1690 nM
- Selectivity Indices (SI) HT-29 [2, 8]: 2.75
- viability at 0.312 µM [3]: 99.1%
- viability at 0.625 µM [3]: 96.1%
- viability at 1.25 µM [3]: 40.3%
- viability at 2.5 µM [3]: 14.5%
- viability at 5 µM [3]: 13.2%
- viability at 10 µM [3]: 9.91%
- IC50 (U-937 renal cancer cells; [7]): 970 ± 10 nM
- IC50 (U-937 renal cancer cells; supplement viability lab report, U937, read-out: IC50 ± SD): 1120 nM
- Selectivity Indices (SI) U-937 (U-937 renal cancer cells; [8]): 2.12
- Toxicity % (U-937 renal cancer cells; U937, MTT, 0.312 uM): 0.8715%
- Toxicity % (U-937 renal cancer cells; U937, MTT, 0.625 uM): 3.867%
- Toxicity % (U-937 renal cancer cells; U937, MTT, 1.25 uM): 59.69%
- Toxicity % (U-937 renal cancer cells; U937, MTT, 2.5 uM): 85.46%
- Toxicity % (U-937 renal cancer cells; U937, MTT, 5 uM): 86.76%
- Toxicity % (U-937 renal cancer cells; U937, MTT, 10 uM): 90.09%
- IC50 [4]: 2060 ± 30 nM
- viability at 0.312 µM [4]: 99.8%
- viability at 0.625 µM [4]: 99.2%
- viability at 1.25 µM [4]: 83.6%
- viability at 2.5 µM [4]: 26.8%
- viability at 5 µM [4]: 11.6%
- viability at 10 µM [4]: 4.59%
- IC50 (normal Vero cells; Chlorocebus sabaeus, supplement viability lab report): 1950 nM
- Toxicity % (normal Vero cells; 0.312 uM): 0.1996%
- Toxicity % (normal Vero cells; 0.625 uM): 0.7585%
- Toxicity % (normal Vero cells; 1.25 uM): 16.37%
- Toxicity % (normal Vero cells; 2.5 uM): 73.21%
- Toxicity % (normal Vero cells; 5 uM): 88.38%
- Toxicity % (normal Vero cells; 10 uM): 95.41%
- %inh (BRD4 (BD2); conc 0.01 (unit not given)): 34%
- %inh (BRD4 (BD2); conc 0.1 (unit not given)): 49%
- %inh (BRD4 (BD2); conc 1 (unit not given)): 73%
- %inh (BRD4 (BD2); conc 10 (unit not given)): 88%
- %inh (BRD4 (BD2); conc 100 (unit not given)): 95%
- IC50 (BRD4 (BD2)): 141 ± 6 nM
- %inh (human recombinant PLK1; conc 0.01 (unit not given)): 25%
- %inh (human recombinant PLK1; conc 0.1 (unit not given)): 42%
- %inh (human recombinant PLK1; conc 1 (unit not given)): 65%
- %inh (human recombinant PLK1; conc 10 (unit not given)): 87%
- %inh (human recombinant PLK1; conc 100 (unit not given)): 94%
- IC50 (human recombinant PLK1): 218 ± 10 nM
